Test results taken from US20230085307A1, “PYRIDAZINONE COMPOUND AND HERBICIDE” (NISSAN CHEMICAL CORPORATION, priority 2019, published 2023).

Tests used:
barnyard grass [1] = experiment: Test Example 3: herbicidal effect by foliage application, Wagner pot (Table 18, symbol H); type: in vivo, barnyard grass (Echinochloa crus-galli)
Summary of the method: (§1)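 Plants were sown in alluvial soil held under 0.1–0.5 cm standing water and grown 14 days in a greenhouse at 25–30 °C. An emulsifiable formulation, water-diluted to the set dose, was then sprayed onto the foliage, and effects were scored three weeks later using previously defined criteria.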

persian speedwell [2] = experiment: Test Example 4: herbicidal effect by soil treatment (Table 19, symbol R); type: in vivo, Persian speedwell (Veronica persica)
Summary of the method: (§2)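 Soil-surface application: an emulsion agent diluted with water to the predetermined dose is sprayed uniformly over seeds lying under roughly 1.5 cm of sterilized diluvial soil. Boxes stay in a greenhouse at 25° C. to 30° C. Three weeks later, each species is graded on previously defined criteria.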

blackgrass [3] = experiment: Test Example 4: herbicidal effect by soil treatment (Table 19, symbol J); type: in vivo, blackgrass (Alopecurus myosuroides)
Summary of the method: as §2

Italian ryegrass [4] = experiment: Test Example 5: herbicidal effect by foliage application, plastic box (Table 20, symbol K); type: in vivo, Italian ryegrass (Lolium multiflorum); settings: foliage application, 320 g/ha
Summary of the method: (§3)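 Sow seeds spot-wise in sterilized diluvial soil; cover with ~1.5 cm soil. Grow 14 days in greenhouse, 25° C. to 30° C. Spray foliage with emulsion diluted to predetermined amount. Rate effect after 3 weeks.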

persian speedwell [5] = experiment: Test Example 5: herbicidal effect by foliage application, plastic box (Table 20, symbol R); type: in vivo, Persian speedwell (Veronica persica); settings: foliage application, 320 g/ha
Summary of the method: as §3

southern crabgrass [6] = experiment: Test Example 4: herbicidal effect by soil treatment (Table 19, symbol F); type: in vivo, southern crabgrass (Digitaria ciliaris)
Summary of the method: as §2

Chinese sprangletop = experiment: Test Example 3: herbicidal effect by foliage application, Wagner pot (Table 18, symbol D); type: in vivo, chinese sprangletop (Leptochloa chinensis)
Summary of the method: as §1

false cleavers = experiment: Test Example 4: herbicidal effect by soil treatment (Table 19, symbol Q); type: in vivo, false cleavers (Galium spurium)
Summary of the method: as §2

windgrass [7] = experiment: Test Example 4: herbicidal effect by soil treatment (Table 19, symbol L); type: in vivo, windgrass (Apera spica-venti)
Summary of the method: as §2

southern crabgrass [8] = experiment: Test Example 5: herbicidal effect by foliage application, plastic box (Table 20, symbol F); type: in vivo, southern crabgrass (Digitaria ciliaris); settings: foliage application, 320 g/ha
Summary of the method: as §3

rice flat sedge = experiment: Test Example 3: herbicidal effect by foliage application, Wagner pot (Table 18, symbol E); type: in vivo, rice flat sedge (Cyperus iria)
Summary of the method: as §1

velvetleaf [9] = experiment: Test Example 5: herbicidal effect by foliage application, plastic box (Table 20, symbol M); type: in vivo, velvetleaf (Abutilon theophrasti); settings: foliage application, 320 g/ha
Summary of the method: as §3

velvetleaf [10] = experiment: Test Example 4: herbicidal effect by soil treatment (Table 19, symbol M); type: in vivo, velvetleaf (Abutilon theophrasti)
Summary of the method: as §2

lambsquarters [11] = experiment: Test Example 4: herbicidal effect by soil treatment (Table 19, symbol O); type: in vivo, lambsquarters (Chenopodium album)
Summary of the method: as §2

wild oat [12] = experiment: Test Example 5: herbicidal effect by foliage application, plastic box (Table 20, symbol I); type: in vivo, wild oat (Avena fatua); settings: foliage application, 320 g/ha
Summary of the method: as §3

green foxtail [13] = experiment: Test Example 4: herbicidal effect by soil treatment (Table 19, symbol G); type: in vivo, green foxtail (Setaria viridis)
Summary of the method: as §2

wild oat [14] = experiment: Test Example 4: herbicidal effect by soil treatment (Table 19, symbol I); type: in vivo, wild oat (Avena fatua)
Summary of the method: as §2

lambsquarters [15] = experiment: Test Example 5: herbicidal effect by foliage application, plastic box (Table 20, symbol O); type: in vivo, lambsquarters (Chenopodium album); settings: foliage application, 320 g/ha
Summary of the method: as §3

green foxtail [16] = experiment: Test Example 5: herbicidal effect by foliage application, plastic box (Table 20, symbol G); type: in vivo, green foxtail (Setaria viridis); settings: foliage application, 320 g/ha
Summary of the method: as §3

blackgrass [17] = experiment: Test Example 5: herbicidal effect by foliage application, plastic box (Table 20, symbol J); type: in vivo, blackgrass (Alopecurus myosuroides); settings: foliage application, 320 g/ha
Summary of the method: as §3

barnyard grass [18] = experiment: Test Example 5: herbicidal effect by foliage application, plastic box (Table 20, symbol H); type: in vivo, barnyard grass (Echinochloa crus-galli); settings: foliage application, 320 g/ha
Summary of the method: as §3

windgrass [19] = experiment: Test Example 5: herbicidal effect by foliage application, plastic box (Table 20, symbol L); type: in vivo, windgrass (Apera spica-venti); settings: foliage application, 320 g/ha
Summary of the method: as §3

redroot pigweed = experiment: Test Example 4: herbicidal effect by soil treatment (Table 19, symbol N); type: in vivo, redroot pigweed (Amaranthus retroflexus)
Summary of the method: as §2

Italian ryegrass [20] = experiment: Test Example 4: herbicidal effect by soil treatment (Table 19, symbol K); type: in vivo, Italian ryegrass (Lolium multiflorum)
Summary of the method: as §2

chickweed = experiment: Test Example 4: herbicidal effect by soil treatment (Table 19, symbol P); type: in vivo, common chickweed (Stellaria media)
Summary of the method: as §2

barnyard grass [21] = experiment: Test Example 4: herbicidal effect by soil treatment (Table 19, symbol H); type: in vivo, barnyard grass (Echinochloa crus-galli)
Summary of the method: as §2

[22] = amount of applied herbicide 320 g/ha

## Cc1nn(C)c(=O)c(-c2c(-c3ccc(CSCC(F)(F)F)cc3)sc3ccccc23)c1O [1-249]
Barnyard grass [1]; 320 g/ha
  herbicidal effect on H (barnyard grass), rating 0-5: 5 (Herbicidal rate of 90% or more (almost completely withered))
Persian speedwell [2]; AAH 320 g/ha
  R: persian speedwell, herbicidal effect rating: 4 (Herbicidal rate of 70% or more and less than 90%)
Blackgrass [3]; AAH 320 g/ha
  J: blackgrass, herbicidal effect rating: 0 (Herbicidal rate of 5% or less (almost no effect))
Italian ryegrass [4]; 3 weeks after application
  effect on Italian ryegrass (K): 4 (Herbicidal rate of 70% or more and less than 90%)
Persian speedwell [5]; 3 weeks after application
  effect on persian speedwell (R): 5 (Herbicidal rate of 90% or more (almost completely withered))
Southern crabgrass [6]; AAH 320 g/ha
  F: southern crabgrass, herbicidal effect rating: 0 (Herbicidal rate of 5% or less (almost no effect))
Chinese sprangletop; 320 g/ha
  herbicidal effect on D (Chinese sprangletop), rating 0-5: 3 (Herbicidal rate of 40% or more and less than 70%)
False cleavers; AAH 320 g/ha
  Q: false cleavers, herbicidal effect rating: 0 (Herbicidal rate of 5% or less (almost no effect))
Windgrass [7]; AAH 320 g/ha
  L: windgrass, herbicidal effect rating: 0 (Herbicidal rate of 5% or less (almost no effect))
Southern crabgrass [8]; 3 weeks after application
  effect on southern crabgrass (F): 4 (Herbicidal rate of 70% or more and less than 90%)
Rice flat sedge; 320 g/ha
  herbicidal effect on E (rice flat sedge), rating 0-5: 3 (Herbicidal rate of 40% or more and less than 70%)
Velvetleaf [9]; 3 weeks after application
  effect on velvetleaf (M): 5 (Herbicidal rate of 90% or more (almost completely withered))
Velvetleaf [10]; AAH 320 g/ha
  M: velvetleaf, herbicidal effect rating: 0 (Herbicidal rate of 5% or less (almost no effect))
Lambsquarters [11]; AAH 320 g/ha
  O: lambsquarters, herbicidal effect rating: 3 (Herbicidal rate of 40% or more and less than 70%)
Wild oat [12]; 3 weeks after application
  effect on wild oat (I): 0 (Herbicidal rate of 5% or less (almost no effect))
Green foxtail [13]; AAH 320 g/ha
  G: green foxtail, herbicidal effect rating: 0 (Herbicidal rate of 5% or less (almost no effect))
Wild oat [14]; AAH 320 g/ha
  I: wild oat, herbicidal effect rating: 0 (Herbicidal rate of 5% or less (almost no effect))
Lambsquarters [15]; 3 weeks after application
  effect on lambsquarters (O): 5 (Herbicidal rate of 90% or more (almost completely withered))
Green foxtail [16]; 3 weeks after application
  effect on green foxtail (G): 4 (Herbicidal rate of 70% or more and less than 90%)
Blackgrass [17]; 3 weeks after application
  effect on blackgrass (J): 0 (Herbicidal rate of 5% or less (almost no effect))
Barnyard grass [18]; 3 weeks after application
  effect on barnyard grass (H): 4 (Herbicidal rate of 70% or more and less than 90%)
Windgrass [19]; 3 weeks after application
  effect on windgrass (L): 0 (Herbicidal rate of 5% or less (almost no effect))
Redroot pigweed; AAH 320 g/ha
  N: redroot pigweed, herbicidal effect rating: 3 (Herbicidal rate of 40% or more and less than 70%)
Italian ryegrass [20]; AAH 320 g/ha
  K: Italian ryegrass, herbicidal effect rating: 3 (Herbicidal rate of 40% or more and less than 70%)
chickweed; AAH 320 g/ha
  P: chickweed, herbicidal effect rating: 0 (Herbicidal rate of 5% or less (almost no effect))
Barnyard grass [21]; AAH 320 g/ha
  H: barnyard grass, herbicidal effect rating: 0 (Herbicidal rate of 5% or less (almost no effect))

## CCSc1ccc(-c2oc3ccc(F)cc3c2-c2c(O)c(C)nn(C)c2=O)cc1 [9-039]
Barnyard grass [1]; [22]
  Herbicidal effect on H (barnyard grass), foliage application: 5 (Herbicidal rate of 90% or more (almost completely withered))
Persian speedwell [2]; [22]
  R: persian speedwell, herbicidal effect grade: 5 (Herbicidal rate of 90% or more (almost completely withered))
Blackgrass [3]; [22]
  J: blackgrass, herbicidal effect grade: 0 (Herbicidal rate of 5% or less (almost no effect))
Italian ryegrass [4]; three weeks after application
  herbicidal effect on Italian ryegrass (K): 5 (Herbicidal rate of 90% or more (almost completely withered))
Persian speedwell [5]; three weeks after application
  herbicidal effect on persian speedwell (R): 5 (Herbicidal rate of 90% or more (almost completely withered))
Southern crabgrass [6]; [22]
  F: southern crabgrass, herbicidal effect grade: 4 (Herbicidal rate of 70% or more and less than 90%)
Chinese sprangletop; [22]
  Herbicidal effect on D (Chinese sprangletop), foliage application: 1 (Herbicidal rate of 5% or more and less than 20%)
False cleavers; [22]
  Q: false cleavers, herbicidal effect grade: 0 (Herbicidal rate of 5% or less (almost no effect))
Windgrass [7]; [22]
  L: windgrass, herbicidal effect grade: 0 (Herbicidal rate of 5% or less (almost no effect))
Southern crabgrass [8]; three weeks after application
  herbicidal effect on southern crabgrass (F): 5 (Herbicidal rate of 90% or more (almost completely withered))
Rice flat sedge; [22]
  Herbicidal effect on E (rice flat sedge), foliage application: 5 (Herbicidal rate of 90% or more (almost completely withered))
Velvetleaf [9]; three weeks after application
  herbicidal effect on velvetleaf (M): 5 (Herbicidal rate of 90% or more (almost completely withered))
Velvetleaf [10]; [22]
  M: velvetleaf, herbicidal effect grade: 3 (Herbicidal rate of 40% or more and less than 70%)
Lambsquarters [11]; [22]
  O: lambsquarters, herbicidal effect grade: 4 (Herbicidal rate of 70% or more and less than 90%)
Wild oat [12]; three weeks after application
  herbicidal effect on wild oat (I): 4 (Herbicidal rate of 70% or more and less than 90%)
Green foxtail [13]; [22]
  G: green foxtail, herbicidal effect grade: 5 (Herbicidal rate of 90% or more (almost completely withered))
Wild oat [14]; [22]
  I: wild oat, herbicidal effect grade: 0 (Herbicidal rate of 5% or less (almost no effect))
Lambsquarters [15]; three weeks after application
  herbicidal effect on lambsquarters (O): 5 (Herbicidal rate of 90% or more (almost completely withered))
Green foxtail [16]; three weeks after application
  herbicidal effect on green foxtail (G): 5 (Herbicidal rate of 90% or more (almost completely withered))
Blackgrass [17]; three weeks after application
  herbicidal effect on blackgrass (J): 4 (Herbicidal rate of 70% or more and less than 90%)
Barnyard grass [18]; three weeks after application
  herbicidal effect on barnyard grass (H): 3 (Herbicidal rate of 40% or more and less than 70%)
Windgrass [19]; three weeks after application
  herbicidal effect on windgrass (L): 5 (Herbicidal rate of 90% or more (almost completely withered))
Redroot pigweed; [22]
  N: redroot pigweed, herbicidal effect grade: 5 (Herbicidal rate of 90% or more (almost completely withered))
Italian ryegrass [20]; [22]
  K: Italian ryegrass, herbicidal effect grade: 5 (Herbicidal rate of 90% or more (almost completely withered))
chickweed; [22]
  P: chickweed, herbicidal effect grade: 3 (Herbicidal rate of 40% or more and less than 70%)
Barnyard grass [21]; [22]
  H: barnyard grass, herbicidal effect grade: 2 (Herbicidal rate of 20% or more and less than 40%)
